Experimental data reported in US12398178B2, “Collections of peptides, peptide agents, and methods of use thereof” (Parabilis Medicines, Inc., priority 2018, dated 2025).
Starred links: 1 amine or outer side, 2 acyl side, 3 side chain; linkers in the order of their positions; H or OH if unused. Positions of bridges follow the written chain, without caps; N, C: chain ends. Residues, ends and D or L forms follow the SMILES beside them. No end group written: not given here. X1 = O=C(C[*:1])O[C@@H]1C=C[C@H](OC(=O)C[*:2])C1; X2 = O=C(C[*:1])O[C@@H]1CC[C@H](OC(=O)C[*:2])C1

Tests used:
[1] = Measurement of LogD (CHI logD by HPLC); format: physicochemical; details: CHI log D, 50 mM ammonium acetate pH 7.4 / acetonitrile gradient, C-18 column, 25° C.
Protocol: Measurement of LogD: LogD values were measured on a Agilent 1260 HPLC with UV detector (254, 220 nm), using a Gemini NX C-18 50×3 mm column (Phenomenex) with a 6-minute 0-100% mobile phase gradient of A) 50 mM ammonium acetate pH 7.4 and B) Acetonitrile at 25° C. with a flow rate of 1 mL/min and injection volume of 3-5 uL.

[2] = target: T1, full-length β-Catenin (Homo sapiens, UniProt P35222); assay: Competition fluorescence polarization assay for binding to beta-catenin (displacement of FITC labeled Axin peptide probe); details: 15 nM full-length β-Catenin, 20 nM FITC labeled Axin peptide probe, 3-fold serial dilution from 5 μM; read-out: bCat EC50
T1 construct: Probe solution (15 nM full-length β-Catenin, 20 nM FITC labeled Axin peptide in buffer)
T1 sequence (P35222 1-781): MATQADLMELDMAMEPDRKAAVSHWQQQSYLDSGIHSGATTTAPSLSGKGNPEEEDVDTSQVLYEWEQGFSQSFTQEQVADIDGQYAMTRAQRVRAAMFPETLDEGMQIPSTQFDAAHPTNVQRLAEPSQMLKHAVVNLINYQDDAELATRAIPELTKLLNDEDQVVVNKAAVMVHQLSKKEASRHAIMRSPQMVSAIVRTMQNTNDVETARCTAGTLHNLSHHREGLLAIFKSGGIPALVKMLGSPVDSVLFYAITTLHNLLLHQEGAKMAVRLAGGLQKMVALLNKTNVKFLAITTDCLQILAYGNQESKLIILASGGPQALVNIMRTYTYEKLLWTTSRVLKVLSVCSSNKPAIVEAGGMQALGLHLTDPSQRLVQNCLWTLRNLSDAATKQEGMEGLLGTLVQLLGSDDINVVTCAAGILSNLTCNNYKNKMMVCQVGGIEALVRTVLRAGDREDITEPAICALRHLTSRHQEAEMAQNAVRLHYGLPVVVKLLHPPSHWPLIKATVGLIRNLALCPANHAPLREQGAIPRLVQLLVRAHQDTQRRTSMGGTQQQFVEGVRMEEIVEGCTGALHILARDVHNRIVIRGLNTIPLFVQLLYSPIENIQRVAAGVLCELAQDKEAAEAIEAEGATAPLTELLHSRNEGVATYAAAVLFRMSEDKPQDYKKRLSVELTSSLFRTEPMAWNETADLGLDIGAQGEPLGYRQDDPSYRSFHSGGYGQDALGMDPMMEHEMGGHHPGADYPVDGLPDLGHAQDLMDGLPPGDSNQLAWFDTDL
Protocol: Peptide assessment: In one assay for assessing binding to beta-catenin, peptide solutions were prepared in buffer (50 mM Tris pH 8.0, 250 mM NaCl, 2% glycerol, 0.5 mM EDTA, 0.02% w/v sodium azide) using a 3-fold serial dilution from 5 μM. Probe solution (15 nM full-length β-Catenin, 20 nM FITC labeled Axin peptide in buffer ([FAM-PEG1-RRWPR(S5)ILD(S5)HVRRVWR (SEQ ID NO: 44)] where the two S5 residues are stapled, as reported in: Proc Natl Acad Sci USA. 2012 Oct. 30; 109(44):17942-7)) was prepared and incubated for 5 minutes, then 40 μL per well plated in a black polystyrene 384-well plate (Corning). Equal volume of the titrated peptide was added to the plate and incubated protected from light for 15 minutes prior to read. Reads were performed on a Spectramax M5 (Molecular Devices) in duplicate.

Compound | chromatographic logD [1] | EC50 [2]
GPAKPEAPGEDASPDELYYYYDDLRQYLSTVA-NH2 (C-terminus assumed) [Compound 23] | 0.81 | > 10 µM
GPAKPEAPGEDASPLELNLYYLDLHDYLQQVA-NH2 (C-terminus assumed) [Compound 30] | 0.98 | > 10 µM
GPAKPEAPGEDASPDELMHYYTSLEDYLDHVP-NH2 (C-terminus assumed) [Compound 18] | 0.52 | > 10 µM
CC[C@H](C)[C@@H]1NC(=O)[C@H](CC(C)C)NC(=O)[C@H](C)NC(=O)[C@H](C)NC(=O)[C@H](Cc2c[nH]cn2)NC(=O)[C@H](CCC(=O)O)NC(=O)[C@@H](NC(=O)[C@H](C)NC(=O)[C@H](Cc2c[nH]c3ccccc23)NC(=O)[C@H](CC(C)C)NC(=O)[C@H](C)NC(=O)[C@@H]2CCCN2C(=O)[C@H](CC(=O)O)NC(=O)[C@H](C)N)CSCC(=O)O[C@@H]2C=C[C@@H](C2)OC(=O)CSC[C@@H](C(=O)N[C@@H](CCC(=O)O)C(=O)N[C@H](C(=O)N[C@@H](CCC(N)=O)C(N)=O)[C@@H](C)O)NC1=O [Compound 48] (H-ADPALWACEHAALICETQ-NH2; linker 8-15 via X1; N-terminus and C-terminus assumed) | 0.93 | > 10 µM
CC[C@H](C)[C@@H]1NC(=O)[C@H](CC(C)C)NC(=O)[C@H](C)NC(=O)[C@H](C)NC(=O)[C@H](Cc2c[nH]cn2)NC(=O)[C@H](CCC(=O)O)NC(=O)[C@@H](NC(=O)[C@H](C)NC(=O)[C@H](Cc2c[nH]c3ccccc23)NC(=O)[C@H](CC(C)C)NC(=O)[C@H](C)NC(=O)[C@@H]2CCCN2C(=O)[C@H](CC(=O)O)NC(=O)[C@H](C)N)CSCC(=O)O[C@@H]2CC[C@@H](C2)OC(=O)CSC[C@@H](C(=O)N[C@@H](CCC(=O)O)C(=O)N[C@H](C(=O)N[C@@H](CCC(N)=O)C(N)=O)[C@@H](C)O)NC1=O [Compound 47] (H-ADPALWACEHAALICETQ-NH2; linker 8-15 via X2; N-terminus and C-terminus assumed) | 0.91 | > 10 µM
GPAKPEAPGEDASPDELRMYYHELDNYLDQVA-NH2 (C-terminus assumed) [Compound 21] | 0.44 | > 10 µM
GPAKPEAPGEDASPIELWEYYESLETYLDNVA-NH2 (C-terminus assumed) [Compound 29] | 0.73 | > 10 µM
GPAKPEAPGEDASPDELYHYYTHLEEYLYDVA-NH2 (C-terminus assumed) [Compound 17] | 0.64 | > 10 µM
GPAKPEAPGEDASPNELYYYYDELHYYLHDVA-NH2 (C-terminus assumed) [Compound 25] | 0.59 | > 10 µM
CC(C)C[C@@H]1NC(=O)[C@H](C)NC(=O)[C@H](C)NC(=O)[C@H](Cc2c[nH]c3ccccc23)NC(=O)[C@H](CCC(=O)O)NC(=O)[C@@H](NC(=O)[C@H](CCCNC(=N)N)NC(=O)[C@H](Cc2c[nH]cn2)NC(=O)[C@@H](NC(=O)[C@H](C)NC(=O)[C@@H]2CCCN2C(=O)[C@H](CC(=O)O)NC(=O)[C@H](C)N)[C@@H](C)O)CSCC(=O)Nc2ccccc2NC(=O)CSC[C@@H](C(=O)N[C@@H](CCC(=O)O)C(=O)N[C@@H](CC(C)C)C(=O)N[C@H](C(N)=O)C(C)C)NC(=O)[C@H](Cc2c[nH]cn2)NC1=O [Compound 35] | 0.77 | > 10 µM
GPAKPEAPGEDASPDELHTYYDTLYHYLTSVA-NH2 (C-terminus assumed) [Compound 22] | 1.09 | > 10 µM
GPAKPEAPGEDASPTELYYYYDHLTDYLDVVP-NH2 (C-terminus assumed) [Compound 24] | 0.66 | > 10 µM
CC(C)C[C@@H]1NC(=O)[C@H](C)NC(=O)[C@H](C)NC(=O)[C@H](Cc2c[nH]c3ccccc23)NC(=O)[C@H](CCC(=O)O)NC(=O)[C@@H](NC(=O)[C@H](CCCNC(=N)N)NC(=O)[C@H](Cc2c[nH]cn2)NC(=O)[C@@H](NC(=O)[C@H](C)NC(=O)[C@@H]2CCCN2C(=O)[C@H](CC(=O)O)NC(=O)[C@H](C)N)[C@@H](C)O)CSCC(=O)O[C@H]2CC[C@H](CC2)OC(=O)CSC[C@@H](C(=O)N[C@@H](CCC(=O)O)C(=O)N[C@@H](CC(C)C)C(=O)N[C@H](C(N)=O)C(C)C)NC(=O)[C@H](Cc2c[nH]cn2)NC1=O [Compound 36] | 0.77 | > 10 µM
GPAKPEAPGEDASPDELIHYYNSLDEYLYEVA-NH2 (C-terminus assumed) [Compound 16] | 0.53 | > 10 µM
GPAKPEAPGEDASPDELIFYYDHLSRYLTDVA-NH2 (C-terminus assumed) [Compound 20] | 0.91 | > 10 µM
GPAKPEAPGEDASPEELYHYYWDLDDYLDRVA-NH2 (C-terminus assumed) [Compound 28] | 0.62 | > 10 µM
CC(C)C[C@@H]1NC(=O)[C@H](C)NC(=O)[C@H](C)NC(=O)[C@H](Cc2c[nH]c3ccccc23)NC(=O)[C@H](CCC(=O)O)NC(=O)[C@@H](NC(=O)[C@H](CCCNC(=N)N)NC(=O)[C@H](Cc2c[nH]cn2)NC(=O)[C@@H](NC(=O)[C@H](C)NC(=O)[C@@H]2CCCN2C(=O)[C@H](CC(=O)O)NC(=O)[C@H](C)N)[C@@H](C)O)CSCC(=O)O[C@@H]2C=C[C@@H](C2)OC(=O)CSC[C@@H](C(=O)N[C@@H](CCC(=O)O)C(=O)N[C@@H](CC(C)C)C(=O)N[C@H](C(N)=O)C(C)C)NC(=O)[C@H](Cc2c[nH]cn2)NC1=O [Compound 39] | 0.75 | > 10 µM
GPAKPEAPGEDASPQELHDYYEILDNYLDWVA-NH2 (C-terminus assumed) [Compound 26] | 0.87 | > 10 µM
GPAKPEAPGEDASPNELHYYYWELDSYLENVA-NH2 (C-terminus assumed) [Compound 27] | 0.64 | > 10 µM
CC(C)C[C@@H]1NC(=O)[C@H](C)NC(=O)[C@H](C)NC(=O)[C@H](Cc2c[nH]c3ccccc23)NC(=O)[C@H](CCC(=O)O)NC(=O)[C@@H](NC(=O)[C@H](CCCNC(=N)N)NC(=O)[C@H](Cc2c[nH]cn2)NC(=O)[C@@H](NC(=O)[C@H](C)NC(=O)[C@@H]2CCCN2C(=O)[C@H](CC(=O)O)NC(=O)[C@H](C)N)[C@@H](C)O)CSCC(=O)O[C@@H]2CC[C@@H](C2)OC(=O)CSC[C@@H](C(=O)N[C@@H](CCC(=O)O)C(=O)N[C@@H](CC(C)C)C(=O)N[C@H](C(N)=O)C(C)C)NC(=O)[C@H](Cc2c[nH]cn2)NC1=O [Compound 38] | 0.8 | > 10 µM
CC(C)C[C@@H]1NC(=O)[C@H](C)NC(=O)[C@H](C)NC(=O)[C@H](Cc2c[nH]c3ccccc23)NC(=O)[C@H](CCC(=O)O)NC(=O)[C@@H](NC(=O)[C@H](CCCNC(=N)N)NC(=O)[C@H](Cc2c[nH]cn2)NC(=O)[C@@H](NC(=O)[C@H](C)NC(=O)[C@@H]2CCCN2C(=O)[C@H](CC(=O)O)NC(=O)[C@H](C)N)[C@@H](C)O)CSCC(=O)Nc2cc(F)c(cc2F)NC(=O)CSC[C@@H](C(=O)N[C@@H](CCC(=O)O)C(=O)N[C@@H](CC(C)C)C(=O)N[C@H](C(N)=O)C(C)C)NC(=O)[C@H](Cc2c[nH]cn2)NC1=O [Compound 32] | 0.61 | 5.17 µM
CC(C)C[C@@H]1NC(=O)[C@H](C)NC(=O)[C@H](C)NC(=O)[C@H](Cc2c[nH]c3ccccc23)NC(=O)[C@H](CCC(=O)O)NC(=O)[C@@H](NC(=O)[C@H](CCCNC(=N)N)NC(=O)[C@H](Cc2c[nH]cn2)NC(=O)[C@@H](NC(=O)[C@H](C)NC(=O)[C@@H]2CCCN2C(=O)[C@H](CC(=O)O)NC(=O)[C@H](C)N)[C@@H](C)O)CSCC(=O)N(C)c2ccc(cc2)N(C)C(=O)CSC[C@@H](C(=O)N[C@@H](CCC(=O)O)C(=O)N[C@@H](CC(C)C)C(=O)N[C@H](C(N)=O)C(C)C)NC(=O)[C@H](Cc2c[nH]cn2)NC1=O [Compound 31] | 0.68 | > 10 µM
GPAKPEAPGEDASPDELHHYYQNLETYLYRVA-NH2 (C-terminus assumed) [Compound 15] | 0.82 | > 10 µM
